Test results taken from patent publication US20240124427A1, “HYDROXYHETEROCYCLOALKANE-CARBAMOYL DERIVATIVES” (Idorsia Pharmaceuticals Ltd, priority 2021, published 2024).
pIC50: −log10 of the molar value. Like-named read-outs stand apart in the source and are kept apart here.

Key:
human Gal-3 (hGal-3) = human Gal-3 (hGal-3) (Homo sapiens (Human), UniProt P17931); assay: Competitive binding assay: biotinylated hGal-3 binding to microplate-adsorbed asialofetuin (ASF)
Summary of the method: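 Biotinylated human Gal-3 binding to plate-adsorbed asialofetuin, competed by compound, 3 h at 4 °C. Bound protein detected with streptavidin-peroxidase (1 h, 4 °C) and ABTS substrate. IC50 reported as mean of several measurements.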

human Gal-1 (hGal-1) = human Gal-1 (hGal-1) (Homo sapiens, UniProt P09382); type: binding
[1] = Activity on hGal-3, mean values of several measurements, mixture of diastereomers measured where not separated

Sequence of human Gal-3 (hGal-3) (P17931 whole entry): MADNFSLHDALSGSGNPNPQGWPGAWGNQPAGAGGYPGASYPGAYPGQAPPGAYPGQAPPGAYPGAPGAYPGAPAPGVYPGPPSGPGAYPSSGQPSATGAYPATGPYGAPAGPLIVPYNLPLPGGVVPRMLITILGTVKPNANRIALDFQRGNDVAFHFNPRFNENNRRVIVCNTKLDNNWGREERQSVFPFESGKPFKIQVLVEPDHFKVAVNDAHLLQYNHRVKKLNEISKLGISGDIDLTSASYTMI
Sequence of human Gal-1 (hGal-1) (P09382 2-135 limits assumed): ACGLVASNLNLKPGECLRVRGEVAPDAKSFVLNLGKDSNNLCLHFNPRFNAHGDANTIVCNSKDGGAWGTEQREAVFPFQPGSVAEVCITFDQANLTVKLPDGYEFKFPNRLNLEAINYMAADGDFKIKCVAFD

pIC50 (human Gal-3 (hGal-3); [1]) | SMILES | pIC50 (human Gal-3 (hGal-3)) | pIC50 (human Gal-1 (hGal-1))
– | CO[C@@H]1[C@@H](n2cc(-c3cc(F)c(C)c(F)c3)nn2)[C@@H](O)[C@@H](CO)O[C@H]1C(=O)N(c1cc(C)cc(Br)c1)[C@H]1CNC[C@@H]1O [Example 70] | 7.25 | 5.75
– | CO[C@@H]1[C@@H](n2cc(-c3cc(F)c(F)c(F)c3)nn2)[C@@H](O)[C@@H](CO)O[C@H]1C(=O)N(c1cc(Br)cc(Br)c1)[C@H]1CN(C(C)=O)C[C@@H]1O [Example 84] | 7.15 | 5.92
– | CO[C@@H]1[C@@H](n2cc(-c3cc(F)c(C)c(F)c3)nn2)[C@@H](O)[C@@H](CO)O[C@H]1C(=O)N(c1cc(Cl)cc(Cl)c1)[C@@H]1CN(C(C)=O)C[C@H]1O [Example 85] | 6.49 | 4.87
– | CO[C@@H]1[C@@H](n2cc(-c3cc(F)c(Cl)c(F)c3)nn2)[C@@H](O)[C@@H](CO)O[C@H]1C(=O)N(c1cc(Cl)cc(Cl)c1)[C@@H]1CN(C(C)=O)C[C@H]1O [Example 86] | 7.19 | 5.75
– | CO[C@@H]1[C@@H](n2cc(-c3cc(F)c(Cl)c(F)c3)nn2)[C@@H](O)[C@@H](CO)O[C@H]1C(=O)N(c1cc(Br)cc(Br)c1)[C@@H]1CN(C(C)=O)C[C@H]1O [Example 87] | 7.44 | 5.73
– | CO[C@@H]1[C@@H](n2cc(-c3ccc(Cl)c(Cl)c3)nn2)[C@@H](O)[C@@H](CO)O[C@H]1C(=O)N(c1cc(Cl)cc(Cl)c1)[C@@H]1CN(C(C)=O)C[C@H]1O [Example 88] | 7.15 | 6.18
6.66 | CO[C@@H]1[C@@H](n2cc(-c3cc(F)c(F)c(F)c3)nn2)[C@@H](O)[C@@H](CO)O[C@H]1C(=O)N(c1cc(Cl)cc(Cl)c1)[C@@H]1COCC[C@H]1O [Example 107, (2R,3R,4S,5R,6R)-N-(3,5-dichlorophenyl)-5-hydroxy-6-(hydroxymethyl)-N-((3R,4R)-4-hydroxytetrahydro-2H-pyran-3-yl)-3-methoxy-4-(4-(3,4,5-trifluorophenyl)-1H-1,2,3-triazol-1-yl)tetrahydro-2H-pyran-2-carboxamide] | – | –
6.50 | CO[C@@H]1[C@@H](n2cc(-c3cc(F)c(F)c(F)c3)nn2)[C@@H](O)[C@@H](CO)O[C@H]1C(=O)N(c1cc(C)cc(Br)c1)[C@@H]1COCC[C@H]1O [Example 108, (2R,3R,4S,5R,6R)-N-(3-bromo-5-methylphenyl)-5-hydroxy-6-(hydroxymethyl)-N-((3R,4R)-4-hydroxytetrahydro-2H-pyran-3-yl)-3-methoxy-4-(4-(3,4,5-trifluorophenyl)-1H-1,2,3-triazol-1-yl)tetrahydro-2H-pyran-2-carboxamide] | – | –
7.89 | CO[C@@H]1[C@@H](n2cc(-c3cc(F)c(F)c(F)c3)nn2)[C@@H](O)[C@@H](CO)O[C@H]1C(=O)N(c1cc(Cl)cc(Cl)c1)[C@H]1CNCC[C@@H]1O [Example 113, (2R,3R,4S,5R,6R)-N-(3,5-dichlorophenyl)-5-hydroxy-6-(hydroxymethyl)-N-((3S,4S)-4-hydroxypiperidin-3-yl)-3-methoxy-4-(4-(3,4,5-trifluorophenyl)-1H-1,2,3-triazol-1-yl)tetrahydro-2H-pyran-2-carboxamide] | – | –
8.05 | CO[C@@H]1[C@@H](n2cc(-c3cc(F)c(F)c(F)c3)nn2)[C@@H](O)[C@@H](CO)O[C@H]1C(=O)N(c1cc(C)cc(Br)c1)[C@H]1CNCC[C@@H]1O [Example 114, (2R,3R,4S,5R,6R)-N-(3-bromo-5-methylphenyl)-5-hydroxy-6-(hydroxymethyl)-N-((3S,4S)-4-hydroxypiperidin-3-yl)-3-methoxy-4-(4-(3,4,5-trifluorophenyl)-1H-1,2,3-triazol-1-yl)tetrahydro-2H-pyran-2-carboxamide] | – | –
6.71 | CO[C@@H]1[C@@H](n2cc(-c3cc(F)c(F)c(F)c3)nn2)[C@@H](O)[C@@H](CO)O[C@H]1C(=O)N(c1cc(C)cc(Br)c1)[C@@H]1CNCC[C@H]1O [Example 115, (2R,3R,4S,5R,6R)-N-(3-bromo-5-methylphenyl)-5-hydroxy-6-(hydroxymethyl)-N-((3R,4R)-4-hydroxypiperidin-3-yl)-3-methoxy-4-(4-(3,4,5-trifluorophenyl)-1H-1,2,3-triazol-1-yl)tetrahydro-2H-pyran-2-carboxamide] | – | –
